In paper PMC7756341, “Liposomal FRET Assay Identifies Potent Drug‐Like Inhibitors of the Ceramide Transport Protein (CERT)” (Chemistry (Weinheim an Der Bergstrasse, Germany), 2020):

Target: T1, CERT (Homo sapiens, UniProt Q9Y5P4)
T1 construct: made in house; host or cells: E. coli BL21 (DE3), pET-28a(+)
T1 sequence (Q9Y5P4 1-598 isoform Q9Y5P4-2): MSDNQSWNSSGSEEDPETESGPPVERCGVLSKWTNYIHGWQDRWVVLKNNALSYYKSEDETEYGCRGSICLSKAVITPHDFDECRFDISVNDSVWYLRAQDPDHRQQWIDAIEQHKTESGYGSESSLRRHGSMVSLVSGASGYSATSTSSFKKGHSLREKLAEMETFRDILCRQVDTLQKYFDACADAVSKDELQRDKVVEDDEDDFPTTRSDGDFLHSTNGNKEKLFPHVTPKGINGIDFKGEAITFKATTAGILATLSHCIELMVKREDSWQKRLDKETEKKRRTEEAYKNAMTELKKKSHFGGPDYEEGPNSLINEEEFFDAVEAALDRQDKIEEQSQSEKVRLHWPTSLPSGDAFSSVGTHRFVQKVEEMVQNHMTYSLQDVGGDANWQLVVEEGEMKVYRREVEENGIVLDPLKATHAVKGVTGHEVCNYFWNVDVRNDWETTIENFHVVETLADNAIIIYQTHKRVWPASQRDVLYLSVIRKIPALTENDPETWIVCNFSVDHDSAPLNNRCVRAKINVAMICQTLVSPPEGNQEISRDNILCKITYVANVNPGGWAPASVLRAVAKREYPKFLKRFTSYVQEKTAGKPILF
Experiment: NR-ceramide fluorescence competition assay
Type: binding
Details: 1 μM Nile red ceramide
Source text: Having the identified hits from CERT-transfer assay, we were interested in further understanding the relationship between the CERT-transfer inhibitory activity and CERT-binding affinity. With this goal in mind, we have developed a homogenous competitive assay based on the binding of fluorescently-labeled ceramide to CERT-protein (Fig S6). It’s well known that Nile Red is […]
than in hydrophilic one. Based on this knowledge, we have designed a fluorescently-labeled probe in which the Nile Red-tag was incorporated into the ceramide fatty acid moiety. The NR-ceramide […]
excellent signal-to-noise ratio (28-fold, Fig S7.A). Equilibration takes ~1h of incubation at 30°C.
Furthermore, this assay is a simple mix-and read format and uses only low amounts of fluorophore (1µM) and CERT-protein (12.5µg/assay).
The assay was performed in non-binding black-bottom 96-well microplate (Greiner Bio-One). To each well was added 1µL HPA12 (final concentration 2.5µM) or DMSO, followed by 98 µL of the CERT aliquot (12.5µg/well). After the mixture was incubated for 40 min at 30°C, 1µL NR-ceramide (final concentration 1µM) was added. Controls were triplicates of 10mM Tris.HCl buffer (pH 7.4, 250 mM sucrose) with 2µL DMSO, CERT aliquot (12.5µg/well) with 2µL DMSO, and 1µL NR-ceramide (final concentration 1µM) in 10mM Tris.HCl buffer (pH 7.4, 250 mM sucrose) with 1µL DMSO. The plate was then sealed with transparent Thermowell seal tape and placed in the microplate reader (LABTECH) at 30°C with shaking. The fluorescence was measured from the top over 80min (number of cycles 35, delay 70 sec) with excitation filter 540 nm and emission filter 640 nm. The competitive CERT-binding activity was calculated using the formula: Ix = I(À2-Y)/I0(À1-X), where À1 is the average of the florescence of the control of NR-ceramide in Tris.HCl buffer, X is the average of the fluorescence of the buffer alone, À2 is the fluorescence average of the assay mixture, Y is the fluorescence average of the CERT aliquot with inhibitor/DMSO (Fig […]
It is however lower than the differentiation in the transfer assay (Fig S8B).
3.2 High throughput screening for CERT-activity and Data analysis
In order to validate the performance of developed assay in high-throughput screening format, the hits from ‘confirmed-hit group’ (45 hits) were screened for their competitive CERT-binding activity. The assay was performed as mentioned in the previous sub-section 3.1. Briefly, 1µL tested compound (final concentration 1µM, 2.5µM, 5µM, 10µM) or DMSO for control, and 98 µL CERT stock solution were sequentially added into a non-binding 96-well microplate. The plate was sealed and incubated at 30°C for 40 min, before 1µL NR-ceramide (final concentration 1µM) was added.
Controls per plate were triplicates of 10mM Tris.HCl buffer (pH 7.4, 250 mM sucrose) with 2µL DMSO, CERT aliquot (12.5µg/well) with 2µL DMSO, 1µL NR-ceramide (final concentration 1µM) in 10mM Tris.HCl buffer (pH 7.4, 250 mM sucrose), and HPA12 as a reference inhibitor (final concentration of 1µM, and 2.5µM, 5µM). The plate was sealed with transparent Thermowell seal tape and the assay was allowed to proceed as described above using excitation filter 540 nm and emission filter 640 nm. The competitive CERT-binding activity was calculated using the formula: Ix = I(À2-Y)/I0(À1-X), where À1 is the average of the florescence of the control 1µL NR-ceramide in Tris.HCl buffer, X is the average of the fluorescence of the buffer alone, À2 is the average of the fluorescence of assay mixture treated with tested compound or DMSO, Y is the average of the fluorescence of CERT aliquot with inhibitor/DMSO.

activity in the NR ceramide competition assay: much less pronounced
SMILES: CCCCCCCCCCCC(=O)NC(CO)CC(O)c1ccccc1 (single isomer, unassigned) [R,R diastereomer of HPA‐12, N-(3Hydroxy-1-hydroxymethyl-3-phenylpropyl)-dodecamide]
